Results reported in patent publication US5470872A, “Benzopyranols” (Beecham Group plc, priority 1988, dated 1995).

How the values were obtained:
[1] = tested on: Spontaneously hypertensive rats; assay: Blood pressure lowering activity, tail cuff method, spontaneously hypertensive rats; assay type: in vivo, rat
Procedure: Blood Pressure Lowering Activity
Systolic blood pressures were recorded by a modification of the tail cuff method described by I. M. Claxton, M. G. Palfreyman, R. H. Poyser, R. L. Whiting, European Journal of Pharmacology, 37,179 (1976). A W+W BP recorder, model 8005 was used to display pulses. Prior to all measurements rats were placed in a heated environment (33.5°±0.5° C.) before transfer to a restraining cage. Each determination of blood pressure was the mean of at least 6 readings. Spontaneously hypertensive rats (ages 12-18 weeks) with systolic blood pressures >180 mmHg were considered hypertensive.

[2] = tested on: guinea pig tracheal spiral preparations; assay: Bronchodilation in vitro; guinea pig tracheal spiral preparations; assay type: cell-based; conditions: Cavia porcellus, relaxation of guinea pig tracheal spirals, relative to total relaxation with 10^-3 M isoprenaline; for Emax: read-out: I.A (efficacy, Intrinsic Activity)
Procedure: (a) Bronchodilation in vitro; guinea pig tracheal spiral preparations
Male guinea pigs (300-600 g) were stunned by a blow to the head and bled from the carotid artery. The trachea was exposed, dissected free of connective tissue, and transferred to oxygenated krebs solution at 37° C. Next, spirals (2 per trachea) were prepared by cutting the whole trachea spirally along its longitudinal axis and then dividing this spiral lengthwise. Each preparation was mounted, using silk thread, in a 10 ml organ bath filled with krebs solution at 37° C. and bubbled with 5% CO2 with O2. The resting tension of the preparations was set at 2 g and changes in muscle tension were monitored isometrically by means of a UFI (2 oz) force and displacement transducer (Ormed Ltd) connected to a Linseis pen recorder. All preparations were allowed to equilibrate for 60 minutes. During this equilibration period the preparations were washed by upward displacement at 15 minute intervals and, if necessary, the resting tension was readjusted to 2 g using a mechanical micromanipulator system.
Once a steady resting tension had been obtained, the preparations were dosed cumulatively with the test compound (10^-8 -2×10^-5 M), and finally a maximum relaxation achieved by addition of 10^-3 M isoprenaline. The fall in tension evoked by the test compound was expressed as a percentage of the total relaxation evoked in the presence of 10^-3 M isoprenaline. Appropriate concentration-relaxation curves were then constructed and values for potency (IC50) and efficacy (Intrinsic Activity, I.A.) were obtained.
The composition of Krebs solution is: sodium chloride 118.07 mM, sodium hydrogen carbonate 26.19 mM, potassium chloride 4.68 mM, potassium orthophosphate 1.18 mM, magnesium sulphate septahydrate 1.8 mM and calcium chloride 2.52 mM; pH ca. 7.45.

Compound	IC50 [2]	Emax [2]	also measured
CC1(C)Oc2ccc(C(F)(F)C(F)(F)F)cc2[C@@H](N2CCCC2=O)[C@@H]1O (relative stereo) [Example 1, Trans-3,4-Dihydro-2,2-dimethyl-6-pentafluoroethyl-4-(2-oxopyrrolidin-1-yl)-2H-1-benzopyran-3-ol]	190 nM	88%	% change in systolic B.P. 1 h ([1]; 0.1 mg/kg p.o.): -19 ± 3%; % change in systolic B.P. 2 h ([1]; 0.1 mg/kg p.o.): -30 ± 2%; % change in systolic B.P. 4 h ([1]; 0.1 mg/kg p.o.): -28 ± 2%
CC1(C)Oc2ccc(C(F)(F)C(F)(F)F)cc2[C@@H](N2CCCCC2=O)[C@@H]1O (relative stereo) [Example 4, Trans-3,4-dihydro-2,2-dimethyl-4-(2-oxopiperidin-1-yl)-6-pentafluoroethyl-2H-1-benzopyran-3-ol]		90%	% change in systolic B.P. 1 h ([1]; 0.3 mg/kg p.o.): -36 ± 3%; % change in systolic B.P. 2 h ([1]; 0.3 mg/kg p.o.): -30 ± 1%; % change in systolic B.P. 4 h ([1]; 0.3 mg/kg p.o.): -26 ± 2%
CC1(C)Oc2ccc(C(F)(F)C(F)(F)F)cc2[C@@H](n2ccccc2=O)[C@@H]1O (relative stereo) [Example 5, Trans-3,4-dihydro-2,2-dimethyl-6-pentafluoroethyl-4-(2(1H)-pyridon-1-yl)-2H-1-benzopyran-3-ol]	150 nM	97%	
CC1(C)C=C(N2CCCC2=O)c2cc(C(F)(F)C(F)(F)F)ccc2O1 [Example 2, 2,2-Dimethyl-6-pentafluoroethyl-4-(2-oxopyrrolidin-1-yl)-2H-1-benzopyran]	98 nM	96%	% change in systolic B.P. 1 h ([1]; 1.0 mg/kg p.o.): -38 ± 2%; % change in systolic B.P. 2 h ([1]; 1.0 mg/kg p.o.): -24 ± 10%; % change in systolic B.P. 4 h ([1]; 1.0 mg/kg p.o.): -18 ± 6%
CC1(C)Oc2ccc(C(O)C(F)(F)F)cc2[C@@H](N2CCCC2=O)[C@@H]1O (some centres unmarked) [Example 3]	370 nM	89%	% change in systolic B.P. 1 h ([1]; 0.3 mg/kg p.o.): -40 ± 10%; % change in systolic B.P. 2 h ([1]; 0.3 mg/kg p.o.): -29 ± 7%; % change in systolic B.P. 4 h ([1]; 0.3 mg/kg p.o.): -25 ± 7%
CC1(C)Oc2ccc(C(F)(F)C(F)(F)F)cc2[C@@H](N2CCCCC2=O)[C@@H]1O [Example 6, (-)-Trans-3,4-dihydro-2,2-dimethyl-4-(2-oxopiperidin-1-yl)-6-pentafluoroethyl-2H-1-benzopyran-3-ol]		93%	
CC1(C)C=C(N2CCCCC2=O)c2cc(C(F)(F)C(F)(F)F)ccc2O1 [Example 8, 2,2-Dimethyl-6-pentafluoroethyl-4-(2-oxopiperidin-1-yl)-2H-1-benzopyran]	190 nM	88%	
CC1(C)C=C(n2ccccc2=O)c2cc(C(F)(F)C(F)(F)F)ccc2O1 [Example 9, 2,2-Dimethyl-6-pentafluoroethyl-4-(2(1H)pyridon-1-yl)-2H-1-benzopyran]	71.5 nM	84%	
